Reference: patent US5936097A, “4,9-ethano-benzo(F)isoindole derivatives as farnesyl transferase inhibitors” (Rhone-Poulenc Rorer, S.A., priority 1995, dated 1999)

The molecules below were run against T1, human farnesyl transferase (Homo sapiens, UniProt P49354+P49356) (assay: inhibition of farnesyl transferase ((3H) farnesyl transfer from (3H) FPP to p21 H-ras)). Settings: not given.
T1 construct: human farnesyl transferase purified from THP1 cell cultures; endogenous in cells; host or cells: THP1 cell cultures (enzyme purified from the cells)
Format: biochemical
Procedure, shortened: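 Radiometric transfer of [3H]farnesyl from 4.5 pmol [3H]FPP to 200 pmol p21 H-ras by ~5 ng human enzyme purified from THP1 cells, in 50 mM Tris-HCl, 5 mM MgCl2, 5 mM DTT, 0.2% octyl glucoside, 20 min at 37 °C. Protein precipitated with SDS/TCA in methanol, filter-bound counts measured; IC50 from 9 concentrations, triplicate.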

Compound | IC50 [nM]
O=C(Cc1ccccc1O)N1C[C@@H]2[C@]3(c4ccccc4)CC[C@@H](c4ccccc43)[C@]2(C(=O)O)C1 (relative stereo) [Example 60, (3aRS,4SR,9SR,9aRS)-4,9-Ethano-2-(2-hydroxyphenyl)acetyl-9-phenyl-2,3,3a,4,9,9a-hexahydro-1H-benzo[f]isoindole-3a-carboxylic acid] | 1800
O=C(Cc1ccccc1Br)N1C[C@H]2[C@@]3(c4ccccc4)CC[C@H](c4ccccc43)[C@@]2(C(=O)O)C1 (relative stereo) [Example 28, (3aRS, 4SR, 9SR, 9aRS)-4,9-ethano-2-(2-bromophenyl)acetyl-9-phenyl-2,3,3a,4,9,9a-hexahydro-1H-benzo[f]isoindole-3a-carboxylic acid] | 3050
COc1ccccc1CC(=O)N1C[C@H]2[C@@]3(c4ccccc4)CC[C@H](c4ccccc43)[C@@]2(C(=O)O)C1 (relative stereo) [Example 2, (3aRS, 4SR, 9SR, 9aRS)-4,9-ethano-2-(2-methoxyphenyl)acetyl-9-phenyl-2,3,3a,4,9,9a-hexahydro-1H-benzo[f]isoindole-3a-carboxylic acid] | 310
CCOc1ccccc1CC(=O)N1C[C@H]2[C@@]3(c4ccccc4)CC[C@H](c4ccccc43)[C@@]2(C(=O)O)C1 [Example 75] | 370
COc1ccccc1CC(=S)N1C[C@@H]2[C@]3(c4ccccc4)CC[C@@H](c4ccccc43)[C@]2(C(=O)O)C1 (relative stereo) [Example 65, (3aRS,4SR,9SR,9aRS)-4,9-Ethano-2-(2-methoxyphenyl)thioacetyl-9-phenyl-2,3,3a,4,9,9a-hexahydro-1H-benzo[f]isoindole-3a-carboxylic acid] | 410

Same assay, conditions: human farnesyl transferase purified from THP1 cell cultures; p21 H-ras substrate; 20 minutes at 37° C.; 9 concentrations; read-out: in vitro inhibitory activity IC50

IC50 [nM] | Compound
5050 | COc1ccccc1C(C(=O)N1C[C@@H]2[C@]3(c4ccccc4)CC[C@@H](c4ccccc43)[C@]2(C(=O)O)C1)=C(C)C (racemic) [Example 79, (3aRS,4SR,9SR,9aRS)-4,9-ethano-2-[2-(2-methoxyphenyl)-3-methyl-2-butenoyl]-9-phenyl-2,3,3a,4,9,9a-hexahydro-1H-benzo[f]isoindole-3a-carboxylic acid]
250 | C=C(C(=O)N1C[C@H]2[C@@]3(c4ccccc4)CC[C@H](c4ccccc43)[C@@]2(C(=O)NC(C#N)c2ccccc2)C1)c1ccccc1OC (stereo partly drawn) [Example 87, (3aS,4R,9R,9aS)-N-[1-(R,S)-1-cyano-1-phenylmethyl]-4,9-ethano-2-[(2-methoxyphenyl)prop-2-en-1-oyl]-9-phenyl-2,3,3a,4,9,9a-hexahydro-1H-benzo[f]isoindole-3a-carboxamide]
2500 | C=C(C(=O)N1C[C@H]2[C@@]3(c4ccccc4)CC[C@H](c4ccccc43)[C@@]2(C(=O)NC2CCSc3ccccc32)C1)c1ccccc1OC (stereo partly drawn) [Example 88, (3aS,4R,9R,9aS)-N-[(R,S)-4-benzo[b]thiopyranyl]-4,9-ethano-2-[(2-methoxyphenyl)prop-2-en-1-oyl]-9-phenyl-2,3,3a,4,9,9a-hexahydro-1H-benzo[f]isoindole-3a-carboxamide]
2300 | COc1ccccc1CC(=O)N1C[C@H]2[C@@]3(c4ccccc4)CC[C@H](c4ccccc43)[C@@]2(CSCCC(=O)O)C1 (relative stereo) [Example 26, 3-[(3aRS, 4SR, 9SR, 9aRS)-4,9-ethano-2-(2-methoxyphenyl)acetyl-9-phenyl-2,3,3a,4,9,9a-hexahydro-1H-benzo[f]isoindol-3a-yl]methylthiopropanoic acid]
690 | C=C(C(=O)N1C[C@H]2[C@@]3(c4ccccc4)CC[C@H](c4ccccc43)[C@@]2(C(=O)N[C@H](C(=O)OC)c2ccccc2)C1)c1ccccc1OC [Example 72]
3030 | COc1ccccc1CC(=O)N1C[C@H]2[C@@]3(c4ccccc4)CC[C@H](c4ccccc43)[C@@]2(NC(=O)CC(=O)O)C1 (relative stereo) [Example 16, (3aRS, 4SR, 9SR, 9aRS)-4,9-ethano-3a-carboxylacetylamino-2-(2-methoxyphenyl)acetyl-9-phenyl-2,3,3a,4,9,9a-hexahydro-1H-benzo[f]isoindole]
7400 | COc1ccc(CSSCc2ccc(OC)c(CC(=O)N3CC4C5(c6ccccc6)CCC(c6ccccc65)C4(C(=O)O)C3)c2)cc1CC(=O)N1CC2C3(c4ccccc4)CCC(c4ccccc43)C2(C(=O)O)C1 (racemic) [Example 37, disulphide of (3aRS, 4SR, 9SR, 9aRS)-4,9-ethano-2-(2-methoxy-5-(mercaptomethyl)-phenyl)acetyl-9-phenyl-2,3,3a,4,9,9a-hexahydro-1H-benzo[f]isoindole-3a-carboxylic acid]
3150 | C=Cc1ccc2c(c1)[C@]1(c3ccccc3)CC[C@H]2[C@@]2(C(=O)O)CN(C(=O)Cc3ccccc3OC)C[C@@H]12 (relative stereo) [Example 73, (3aRS,4SR,9SR,9aRS)-4,9-ethano-2-(2-methoxyphenyl)acetyl-9-phenyl-7-vinyl-2,3,3a,4,9,9a-hexahydro-1H-benzo[f]isoindole-3a-carboxylic acid]

Compound | IC50 [nM]
C=C(C(=O)N1C[C@H]2[C@@]3(c4ccccc4)CC[C@H](c4ccccc43)[C@@]2(C(=O)O)C1)c1ccccc1OC [Example 39, (3aS,4R,9R,9aS)-4,9-ethano-2-[2-(2-methoxyphenyl)prop-2-en-1-oyl]-9-phenyl-1,2,3,3a,9,9a-hexahydro-1H-benzo[f]isoindole-3a-carboxylic acid] | 50
